{"source": "the supplement of paper PMC10307832", "experiment_in_all_cases": "relative viability (nuclei count vs DMSO), 5 days (fraction); higher = more cells survive", "key": {"201T": {"system": "201T", "outline": "(§1)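 The day after seeding in 1536-well plates, lung cancer cell lines were treated by pin tool with a single drug, or with a fixed anchor-drug dose together with five library-drug doses (not always all listed) in √10 steps. After 5 days, a combined fix-and-stain solution (final 0.05% Triton X-100, 1% formaldehyde, 1 ug/ml Hoechst) was added. Nuclei counted on 4× images gave relative viability as treated counts over vehicle counts, reported as the median of duplicate plates.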"}, "COR-L23": {"system": "COR-L23", "outline": "as §1"}, "EPLC-272H": {"system": "EPLC-272H", "outline": "as §1"}, "H3255": {"system": "H3255", "outline": "as §1"}, "HCC-15": {"system": "HCC-15", "outline": "as §1"}, "LOU-NH91": {"system": "LOU-NH91", "outline": "as §1"}, "NCI-H1650": {"system": "NCI-H1650", "outline": "as §1"}, "NCI-H1734": {"system": "NCI-H1734", "outline": "as §1"}, "NCI-H1793": {"system": "NCI-H1793", "outline": "as §1"}, "NCI-H2023": {"system": "NCI-H2023", "outline": "as §1"}, "NCI-H2170": {"system": "NCI-H2170", "outline": "as §1"}, "NCI-H2347": {"system": "NCI-H2347", "outline": "as §1"}, "NCI-H2405": {"system": "NCI-H2405", "outline": "as §1"}, "NCI-H3122": {"system": "NCI-H3122", "outline": "as §1"}, "NCI-H322M": {"system": "NCI-H322M", "outline": "as §1"}, "NCI-H441": {"system": "NCI-H441", "outline": "as §1"}, "NCI-H520": {"system": "NCI-H520", "outline": "as §1"}, "NCI-H647": {"system": "NCI-H647", "outline": "as §1"}, "PC-14": {"system": "PC-14", "outline": "as §1"}, "SW 900": {"system": "SW 900", "outline": "as §1"}, "UMC-11": {"system": "UMC-11", "outline": "as §1"}}}
{"molecule": "Cc1sc2c(c1C)C(c1ccc(Cl)cc1)=N[C@@H](CC(=O)OC(C)(C)C)c1nnc(C)n1-2", "note": "[JQ1] + CC(=O)Nc1cccc(-n2c(=O)n(C3CC3)c(=O)c3c(Nc4ccc(I)cc4F)n(C)c(=O)c(C)c32)c1 [Trametinib] (partner 0.02 µM)", "values": [{"measurement": "relative viability", "setting": "201T; first compound 0.04 µM", "value": 0.72}, {"measurement": "relative viability", "setting": "201T; first compound 0.4 µM", "value": 0.538}, {"measurement": "relative viability", "setting": "201T; first compound 1.265 µM", "value": 0.505}, {"measurement": "relative viability", "setting": "201T; first compound 4 µM", "value": 0.391}, {"measurement": "relative viability", "setting": "COR-L23; first compound 0.04 µM", "value": 0.562}, {"measurement": "relative viability", "setting": "COR-L23; first compound 0.1265 µM", "value": 0.497}, {"measurement": "relative viability", "setting": "COR-L23; first compound 0.4 µM", "value": 0.55}, {"measurement": "relative viability", "setting": "COR-L23; first compound 1.265 µM", "value": 0.342}, {"measurement": "relative viability", "setting": "COR-L23; first compound 4 µM", "value": 0.29}, {"measurement": "relative viability", "setting": "EPLC-272H; first compound 0.04 µM", "value": 0.278}, {"measurement": "relative viability", "setting": "EPLC-272H; first compound 0.1265 µM", "value": 0.252}, {"measurement": "relative viability", "setting": "EPLC-272H; first compound 0.4 µM", "value": 0.273}, {"measurement": "relative viability", "setting": "EPLC-272H; first compound 1.265 µM", "value": 0.254}, {"measurement": "relative viability", "setting": "EPLC-272H; first compound 4 µM", "value": 0.215}, {"measurement": "relative viability", "setting": "H3255; first compound 0.04 µM", "value": 0.58}, {"measurement": "relative viability", "setting": "H3255; first compound 0.4 µM", "value": 0.452}, {"measurement": "relative viability", "setting": "H3255; first compound 1.265 µM", "value": 0.345}, {"measurement": "relative viability", "setting": "H3255; first compound 4 µM", "value": 0.322}, {"measurement": "relative viability", "setting": "HCC-15; first compound 0.04 µM", "value": 0.376}, {"measurement": "relative viability", "setting": "HCC-15; first compound 0.4 µM", "value": 0.338}, {"measurement": "relative viability", "setting": "HCC-15; first compound 1.265 µM", "value": 0.31}, {"measurement": "relative viability", "setting": "HCC-15; first compound 4 µM", "value": 0.28}, {"measurement": "relative viability", "setting": "LOU-NH91; first compound 0.04 µM", "value": 0.774}, {"measurement": "relative viability", "setting": "LOU-NH91; first compound 0.1265 µM", "value": 0.719}, {"measurement": "relative viability", "setting": "LOU-NH91; first compound 0.4 µM", "value": 0.603}, {"measurement": "relative viability", "setting": "LOU-NH91; first compound 1.265 µM", "value": 0.479}, {"measurement": "relative viability", "setting": "LOU-NH91; first compound 4 µM", "value": 0.414}, {"measurement": "relative viability", "setting": "NCI-H1650; first compound 0.04 µM", "value": 0.477}, {"measurement": "relative viability", "setting": "NCI-H1650; first compound 0.1265 µM", "value": 0.425}, {"measurement": "relative viability", "setting": "NCI-H1650; first compound 0.4 µM", "value": 0.43}, {"measurement": "relative viability", "setting": "NCI-H1650; first compound 1.265 µM", "value": 0.18}, {"measurement": "relative viability", "setting": "NCI-H1650; first compound 4 µM", "value": 0.145}, {"measurement": "relative viability", "setting": "NCI-H1734; first compound 0.04 µM", "value": 0.685}, {"measurement": "relative viability", "setting": "NCI-H1734; first compound 0.1265 µM", "value": 0.688}, {"measurement": "relative viability", "setting": "NCI-H1734; first compound 0.4 µM", "value": 0.644}, {"measurement": "relative viability", "setting": "NCI-H1734; first compound 1.265 µM", "value": 0.462}, {"measurement": "relative viability", "setting": "NCI-H1734; first compound 4 µM", "value": 0.491}, {"measurement": "relative viability", "setting": "NCI-H1793; first compound 0.04 µM", "value": 0.483}, {"measurement": "relative viability", "setting": "NCI-H1793; first compound 0.1265 µM", "value": 0.429}, {"measurement": "relative viability", "setting": "NCI-H1793; first compound 0.4 µM", "value": 0.595}, {"measurement": "relative viability", "setting": "NCI-H1793; first compound 1.265 µM", "value": 0.481}, {"measurement": "relative viability", "setting": "NCI-H1793; first compound 4 µM", "value": 0.5}, {"measurement": "relative viability", "setting": "NCI-H2023; first compound 0.04 µM", "value": 0.472}, {"measurement": "relative viability", "setting": "NCI-H2023; first compound 0.1265 µM", "value": 0.394}, {"measurement": "relative viability", "setting": "NCI-H2023; first compound 0.4 µM", "value": 0.248}, {"measurement": "relative viability", "setting": "NCI-H2023; first compound 1.265 µM", "value": 0.162}, {"measurement": "relative viability", "setting": "NCI-H2023; first compound 4 µM", "value": 0.137}, {"measurement": "relative viability", "setting": "NCI-H2170; first compound 0.04 µM", "value": 0.861}, {"measurement": "relative viability", "setting": "NCI-H2170; first compound 0.1265 µM", "value": 0.843}, {"measurement": "relative viability", "setting": "NCI-H2170; first compound 0.4 µM", "value": 0.637}, {"measurement": "relative viability", "setting": "NCI-H2170; first compound 1.265 µM", "value": 0.585}, {"measurement": "relative viability", "setting": "NCI-H2170; first compound 4 µM", "value": 0.519}, {"measurement": "relative viability", "setting": "NCI-H2347; first compound 0.04 µM", "value": 0.275}, {"measurement": "relative viability", "setting": "NCI-H2347; first compound 0.1265 µM", "value": 0.294}, {"measurement": "relative viability", "setting": "NCI-H2347; first compound 0.4 µM", "value": 0.276}, {"measurement": "relative viability", "setting": "NCI-H2347; first compound 1.265 µM", "value": 0.24}, {"measurement": "relative viability", "setting": "NCI-H2347; first compound 4 µM", "value": 0.258}, {"measurement": "relative viability", "setting": "NCI-H2405; first compound 0.04 µM", "value": 0.627}, {"measurement": "relative viability", "setting": "NCI-H2405; first compound 0.4 µM", "value": 0.601}, {"measurement": "relative viability", "setting": "NCI-H2405; first compound 1.265 µM", "value": 0.422}, {"measurement": "relative viability", "setting": "NCI-H2405; first compound 4 µM", "value": 0.332}, {"measurement": "relative viability", "setting": "NCI-H3122; first compound 0.04 µM", "value": 0.219}, {"measurement": "relative viability", "setting": "NCI-H3122; first compound 0.1265 µM", "value": 0.179}, {"measurement": "relative viability", "setting": "NCI-H3122; first compound 0.4 µM", "value": 0.322}, {"measurement": "relative viability", "setting": "NCI-H3122; first compound 1.265 µM", "value": 0.317}, {"measurement": "relative viability", "setting": "NCI-H3122; first compound 4 µM", "value": 0.304}, {"measurement": "relative viability", "setting": "NCI-H322M; first compound 0.04 µM", "value": 0.555}, {"measurement": "relative viability", "setting": "NCI-H322M; first compound 0.1265 µM", "value": 0.644}, {"measurement": "relative viability", "setting": "NCI-H322M; first compound 0.4 µM", "value": 0.45}, {"measurement": "relative viability", "setting": "NCI-H322M; first compound 1.265 µM", "value": 0.334}, {"measurement": "relative viability", "setting": "NCI-H322M; first compound 4 µM", "value": 0.539}, {"measurement": "relative viability", "setting": "NCI-H441; first compound 0.04 µM", "value": 0.476}, {"measurement": "relative viability", "setting": "NCI-H441; first compound 0.1265 µM", "value": 0.377}, {"measurement": "relative viability", "setting": "NCI-H441; first compound 0.4 µM", "value": 0.31}, {"measurement": "relative viability", "setting": "NCI-H441; first compound 1.265 µM", "value": 0.175}, {"measurement": "relative viability", "setting": "NCI-H441; first compound 4 µM", "value": 0.169}, {"measurement": "relative viability", "setting": "NCI-H520; first compound 0.04 µM", "value": 0.565}, {"measurement": "relative viability", "setting": "NCI-H520; first compound 0.1265 µM", "value": 0.66}, {"measurement": "relative viability", "setting": "NCI-H520; first compound 0.4 µM", "value": 0.386}, {"measurement": "relative viability", "setting": "NCI-H520; first compound 1.265 µM", "value": 0.391}, {"measurement": "relative viability", "setting": "NCI-H520; first compound 4 µM", "value": 0.239}, {"measurement": "relative viability", "setting": "NCI-H647; first compound 0.04 µM", "value": 0.403}, {"measurement": "relative viability", "setting": "NCI-H647; first compound 0.1265 µM", "value": 0.326}, {"measurement": "relative viability", "setting": "NCI-H647; first compound 0.4 µM", "value": 0.214}, {"measurement": "relative viability", "setting": "NCI-H647; first compound 1.265 µM", "value": 0.126}, {"measurement": "relative viability", "setting": "NCI-H647; first compound 4 µM", "value": 0.0652}, {"measurement": "relative viability", "setting": "PC-14; first compound 0.04 µM", "value": 0.862}, {"measurement": "relative viability", "setting": "PC-14; first compound 0.1265 µM", "value": 0.174}, {"measurement": "relative viability", "setting": "PC-14; first compound 0.4 µM", "value": 0.515}, {"measurement": "relative viability", "setting": "PC-14; first compound 1.265 µM", "value": 0.26}, {"measurement": "relative viability", "setting": "PC-14; first compound 4 µM", "value": 0.182}, {"measurement": "relative viability", "setting": "SW 900; first compound 0.04 µM", "value": 0.804}, {"measurement": "relative viability", "setting": "SW 900; first compound 0.1265 µM", "value": 0.582}, {"measurement": "relative viability", "setting": "SW 900; first compound 0.4 µM", "value": 0.532}, {"measurement": "relative viability", "setting": "SW 900; first compound 1.265 µM", "value": 0.205}, {"measurement": "relative viability", "setting": "SW 900; first compound 4 µM", "value": 0.204}, {"measurement": "relative viability", "setting": "UMC-11; first compound 0.04 µM", "value": 0.588}, {"measurement": "relative viability", "setting": "UMC-11; first compound 0.1265 µM", "value": 0.543}, {"measurement": "relative viability", "setting": "UMC-11; first compound 0.4 µM", "value": 0.377}, {"measurement": "relative viability", "setting": "UMC-11; first compound 1.265 µM", "value": 0.204}, {"measurement": "relative viability", "setting": "UMC-11; first compound 4 µM", "value": 0.194}]}
